In brackets after ≈: the same amount, converted by molar mass. Where a name gives a salt, the structure may show the parent alone. Read-outs that look alike come from different tables or passages of the source.
Columns and labels:
H. influenzae ATCC 49247 = assay: MIC, H. influenzae ATCC 49247; assay type: cell-based; settings: Haemophilus influenzae, ATCC49247; Table XIV B. Gram-negative bacteria
[1] = system: Escherichia coli (ATCC25922); assay: MIC, broth microdilution (CLSI), Escherichia coli; settings: for MIC: Escherichia coli
[2] = system: Enterococcus faecalis (ATCC29212); assay: MIC, broth microdilution (CLSI), Enterococcus faecalis; assay type: cell-based; settings: ATCC29212, Table XIV A. Gram-positive bacteria, read-out: E. faecalis ATCC 29212 MIC
K. pneumoniae ATCC 43816 = assay: MIC, K. pneumoniae ATCC 43816; assay type: cell-based; settings: Klebsiella pneumoniae, ATCC43816; Table XIV B. Gram-negative bacteria
[3] = system: Staphylococcus aureus subsp. aureus (ATCC29213); assay: MIC, broth microdilution (CLSI), Staphylococcus aureus ATCC29213; assay type: cell-based; settings: Staphylococcus aureus, read-out: S. aureus ATCC 29213 MIC
A. baumannii ATCC 17978 = assay: MIC, A. baumannii ATCC 17978; assay type: cell-based; settings: Acinetobacter baumannii, ATCC17978; Table XIV B. Gram-negative bacteria
M. phlei ATCC 11758 = assay: MIC, M. phlei ATCC 11758; assay type: cell-based; settings: Mycolicibacterium phlei, ATCC11758; Table XIV A. Gram-positive bacteria
[4] = system: Pseudomonas aeruginosa (ATCC27853); assay: MIC, broth microdilution (CLSI), Pseudomonas aeruginosa; assay type: cell-based; settings: ATCC27853, Table XIV B. Gram-negative bacteria, read-out: P. aeruginosa ATCC 27853 MIC
E. faecium ATCC 700221 = assay: MIC, E. faecium ATCC 700221; assay type: cell-based; settings: Enterococcus faecium, ATCC700221; Table XIV A. Gram-positive bacteria; read-out: E. faecium ATCC 700221 MIC
[5] = system: E. coli RNase P RNA, M1 RNA; assay: Inhibition of bacterial RNase P activity, IC50 determination (cleavage of pATSerUG by M1 RNA); assay type: biochemical; settings: NI: No inhibition
[6] = system: E. coli JW5503 (efflux defective); assay: MIC, E. coli JW5503 (efflux defective); assay type: cell-based; settings: Escherichia coli, read-out: E. coli JW5503 (efflux defective) MIC
[7] = system: P. aeruginosa NTUH974 (MDR); assay: MIC, P. aeruginosa NTUH974 (MDR); assay type: cell-based; settings: Pseudomonas aeruginosa; Table XIV B. Gram-negative bacteria; read-out: P. aeruginosa NTUH974 (MDR) MIC
[8] = system: N. gonorrhoeae ATCC 700825; assay: MIC, N. gonorrhoeae ATCC 700825; assay type: cell-based; settings: Neisseria gonorrhoeae, ATCC700825; Table XIV B. Gram-negative bacteria
H. pylori ATCC 43504 = assay: MIC, H. pylori ATCC 43504; assay type: cell-based; settings: Helicobacter pylori, ATCC43504; Table XIV B. Gram-negative bacteria
M. fortuitum ATCC 110 = assay: MIC, M. fortuitum ATCC 110; assay type: cell-based; settings: Mycolicibacterium fortuitum, ATCC110; Table XIV A. Gram-positive bacteria
S. pneumoniae ATCC 49619 = assay: MIC, S. pneumoniae ATCC 49619; assay type: cell-based; settings: Streptococcus pneumoniae, ATCC49619; Table XIV A. Gram-positive bacteria
[9] = system: S. aureus USA300 MRSA BAA-1717; assay: MIC, S. aureus USA300 MRSA BAA-1717; assay type: cell-based; settings: Staphylococcus aureus; Table XIV A. Gram-positive bacteria; read-out: S. aureus USA300 MRSA BAA-1717 MIC
[10] = system: S. aureus MRSA ATCC 33591; assay: MIC, S. aureus MRSA ATCC 33591; assay type: cell-based; settings: Staphylococcus aureus; Table XIV A. Gram-positive bacteria; read-out: S. aureus MRSA ATCC 33591 MIC
[11] = system: Staphylococcus aureus (ATCC25923); assay: MIC, broth microdilution (CLSI), Staphylococcus aureus ATCC25923; settings: for MIC: Staphylococcus aureus, ATCC25923, read-out: S. aureus ATCC 25923 MIC
Description: Initial minimal inhibitory concentration (MIC) tests were made on two bacterial strains: • Escherichia coli (ATCC25922) • Staphylococcus aureus (ATCC25923).
MIC values were determined using the standard broth microdilution procedure based on the guidelines by the Clinical and Laboratory Standards Institute (CLSI). Briefly, the compounds were dissolved in DMSO to 10 mM. They were diluted in cation-adjusted Mueller-Hinton broth (CAMHB) to four times the highest concentration tested. A serial two-fold dilution in CAMHB was done in microdilution plates. The inoculum of bacterial strain to be tested was prepared by making a suspension of colonies from an 18 to 24 hours old plate in CAMHB. The inoculum was diluted so that, after inoculation, each well contained approximately 5×10^5 CFU/mL. To a volume of 50 μl compound in CA 3 an equal volume of inoculum was added. The tray was sealed in a plastic bag and incubated at 35° C. for 16 to 20 hours. To aid in the detection of growth the dye resazurin was added to a final concentration 0.001% and incubated at room temperature for 1 h. Reduction of resazurin, and therefore bacterial growth, was seen as a change from blue to pink.

[12] = ATCC25922, read-out: E. coli ATCC 25922 MIC, Table XIII
[13] = ATCC25922, read-out: E. coli ATCC 25922 MIC, Table XIV B. Gram-negative bacteria
[14] = ATCC29213, Table XIV A. Gram-positive bacteria

| Structure (SMILES) | MIC (H. influenzae ATCC 49247) [µg/mL] | MIC [1, 12] [µg/mL] | MIC [1, 13] [µg/mL] | MIC [2] [µg/mL] | MIC (K. pneumoniae ATCC 43816) [µg/mL] | MIC ([3]; ATCC29213, Table XIII) [µg/mL] | MIC [3, 14] [µg/mL] | MIC (A. baumannii ATCC 17978) [µg/mL] | MIC (M. phlei ATCC 11758) [µg/mL] | MIC [4] [µg/mL] | MIC (E. faecium ATCC 700221) [µg/mL] | IC50 [5] [µM] | MIC [6] [µg/mL] | MIC [7] [µg/mL] | MIC [8] [µg/mL] | MIC (H. pylori ATCC 43504) [µg/mL] | MIC (M. fortuitum ATCC 110) [µg/mL] | MIC (S. pneumoniae ATCC 49619) [µg/mL] | MIC [9] [µg/mL] | MIC [10] [µg/mL] | also measured |
| --- | --- | --- | --- | --- | --- | --- | --- | --- | --- | --- | --- | --- | --- | --- | --- | --- | --- | --- | --- | --- | --- |
| Cc1cccc(C(CCNCCCN)c2cn(C3CCCCC3)c3cc(Br)ccc23)c1.Cl.Cl (stereo not drawn) [Compound 357, N1-(3-(6-bromo-1-cyclohexyl-1H-indol-3-yl)-3-(m-tolyl)propyl)propane-1,3-diamine hydrochloride salt] | 2 | 4 | 2 | 2 | 2 | 4 | 2 | 4 | 4 | 4 | 1 | 10 | 4 | 4 | 2 | 16 | 4 | 8 | 2 | 2 |  |
| Cc1cccc(-c2ccc3c(c2)c(CCCNCC(O)CN)cn3C2CCCCC2)c1 (stereo not drawn) [Compound 385, 1-amino-3-((3-(1-cyclohexyl-5-(m-tolyl)-1H-indol-3-yl)propyl)amino) propan-2-ol] | 2 (≈ 4.77 µM) | 4 (≈ 9.53 µM) | 4 (≈ 9.53 µM) | 2 (≈ 4.77 µM) | 4 (≈ 9.53 µM) | 4 (≈ 9.53 µM) | 2 (≈ 4.77 µM) | 4 (≈ 9.53 µM) | 4 (≈ 9.53 µM) | 4 (≈ 9.53 µM) | 2 (≈ 4.77 µM) | 13 | 2 (≈ 4.77 µM) | 4 (≈ 9.53 µM) | 2 (≈ 4.77 µM) | 8 (≈ 19.1 µM) | 2 (≈ 4.77 µM) | 8 (≈ 19.1 µM) | 2 (≈ 4.77 µM) | 2 (≈ 4.77 µM) |  |
| Cl.Cl.NCCCNCCC(c1cn(C2CCCCC2)c2ccccc12)C1CCCCC1 (stereo not drawn) [Compound 371, N1-(3-cyclohexyl-3-(1-cyclohexyl-1H-indol-3-yl)propyl)propane-1,3-diamine hydrochloride] | 4 | 2 | 2 | 4 | 4 | 4 | 4 | 4 | 4 | 8 | 2 |  | 2 | 8 | 2 | 16 | 4 | 8 | 4 | 4 | IC50 ([5]; hydrochloride): 9 µM |
| Cc1cccc(-c2ccc3c(c2)c(C2CCCC(NCCCN)C2)cn3C2CCCCC2)c1 (stereo not drawn) [Compound 381, N1-(3-(1-cyclohexyl-5-(m-tolyl)-1H-indol-3-yl)cyclohexyl)propane-1,3-diamine] | 2 (≈ 4.51 µM) | 4 (≈ 9.02 µM) | 2 (≈ 4.51 µM) | 2 (≈ 4.51 µM) | 4 (≈ 9.02 µM) | 2 (≈ 4.51 µM) | 2 (≈ 4.51 µM) | 4 (≈ 9.02 µM) | 4 (≈ 9.02 µM) | 4 (≈ 9.02 µM) | 1 (≈ 2.25 µM) | 11 | 2 (≈ 4.51 µM) | 8 (≈ 18 µM) | 2 (≈ 4.51 µM) | 8 (≈ 18 µM) | 4 (≈ 9.02 µM) | 8 (≈ 18 µM) | 2 (≈ 4.51 µM) | 2 (≈ 4.51 µM) |  |
| Cc1cccc(-c2ccc3c(c2)c(CCCNCCCN)cn3C2CCCCC2)c1.Cl.Cl [Compound 360, N1-(3-(1-cyclohexyl-5-(m-tolyl)-1H-indol-3-yl)propyl)propane-1,3-diamine hydrochloride salt] | 2 | 4 | 2 | 2 | 4 | 4 | 4 | 4 | 4 | 8 | 2 | 7.8 | 2 | 8 | 2 | 8 | 4 | 8 | 2 | 2 |  |
| Cc1cccc(-c2ccc3c(c2)c(CCN[C@H]2CC[C@H](N)CC2)cn3CC2CCCCC2)c1 [Compound 225, (1R,4R)-N1-(2-(1-(cyclohexylmethyl)-5-(m-tolyl)-1H-indol-3-yl)ethyl)cyclohexane-1,4-diamine hydrochloride salt] | 4 | 2 | 2 | 2 | 2 | 2 | 2 | 2 | 1 | 8 | 1 | 11.8 | 2 | 16 | 2 |  | 1 | 8 | 2 | 2 | MIC [11]: 2 µg/mL |
| COc1ccccc1-c1ccc2c(c1)c(CCCN[C@H]1CC[C@H](N)CC1)cn2CC1CCCCC1 [Compound 237, (1S,4S)-N1-(3-(1-(cyclohexylmethyl)-5-(2-methoxyphenyl)-1H-indol-3-yl)propyl)cyclohexane-1,4-diamine hydrochloride salt] | 8 | 4 | 4 | 2 | 4 | 4 | 2 | 8 | 2 | 16 | 2 | 9.8 | 4 | 16 | 2 |  | 2 | 8 | 4 | 4 | MIC [11]: 2 µg/mL |
| Cc1cccc(C(CCN[C@H]2CC[C@H](N)CC2)c2cn(CC3CCCCC3)c3ccccc23)c1 (stereo partly drawn) [Compound 199, (1R,4R)-N1-(3-(1-(cyclohexylmethyl)-1H-indol-3-yl)-3-(m-tolyl)propyl) cyclohexane-1,4-diamine hydrochloride] | 8 | 4 | 32 | 8 | 16 | 4 | 8 | 8 | 2 | 32 | 4 | 9.8 | 4 | 64 | 4 |  | 2 | 16 | 4 | 8 | MIC [11]: 2 µg/mL |
| N[C@H]1CC[C@H](NC2CCC(c3cn(CC4CCCCC4)c4ccc(Br)cc34)CC2)CC1 (single isomer, unassigned) [Compound 266, (1r,4r)-N1-(4-(5-bromo-1-(cyclohexylmethyl)-1H-indol-3-yl)cyclohexyl)cyclohexane-1,4-diamine hydrochloride salt] | 4 |  | 4 | 2 | 4 | 2 | 4 | 8 | 2 | 8 | 2 |  | 4 | 16 | 2 |  | 2 | 8 | 2 | 2 | E. coli ATCC 25922 MIC ([1]; Table XIII): 2 µg/mL; S. aureus ATCC 25923 MIC ([11]; Table XIII): 2 µg/mL; IC50 ([5]; hydrochloride salt): 8.5 µM |
